Reference: US9884823B2, “Oxime ether acetate compound, preparation method therefor and weeding application thereof” (ZHEJIANG UNIVERSITY OF TECHNOLOGY, priority 2014, dated 2018)
Like-named read-outs stand apart in the source and are kept apart here.

What was measured:
[1] = test system: Mustard; settings: 150 g a.i./ha, 30 days, Table 9
[2] = test system: Cotton; settings: 150 g a.i./ha; post-emergence spray treatment
[3] = test system: Cucumber; assay: Culture dish method (general screening); type: in vivo; settings: 100 mg/L, 7 days
Excerpt: (§3) Culture dish method (general screening): The test targets were radish, cucumber, rape, wheat, sorghum and barnyard grass; the seeds of wheat, sorghum and radish were germinated in advance, and the uniform emerge-germinating seeds were used in the test.

[4] = test system: Barnyardgrass; assay: Potted plants live body test; type: in vivo, barnyard grass
[5] = test system: Soybean; settings: 150 g a.i./ha; post-emergence spray treatment
[6] = test system: Rape; settings: 150 g a.i./ha; post-emergence spray treatment
[7] = test system: Small quinoa; settings: 150 g a.i./ha, 30 days, Table 9
Excerpt: (§1) The raw drug which was selected from the compounds in table 1 was weighed using an analytical balance (0.0001 g), and dissolved in DMF containing 1 wt % Tween-80 emulsifier to prepare a mother liquor of raw drug with a mass concentration of 1.0˜5.0%, and then diluted with distilled water, to prepare preparations at desired concentrations according to the ratio of ingredients in Examples 8, 9 and 10.
(§2) The test targets were mustard, small quinoa, Abutilon, amaranthus retroflexus, Eclipta prostrata, crabgrass, dog point. A pot with a diameter of 7.5 cm was used, filled with composite soil (garden soil:nursery matrix, 1:2, v/v) to ¾ of the pot, then the above […] kinds of weeds targets were directly seeded (germination rate ≧85%), covered with soil at a thickness of 0.2 cm. When the weeds grew to 3-leaf stage, pre-emergence soil treatment for weeds planting, and then spraying was performed.

[8] = test system: grass weeds such as crabgrass, barnyard grass, dog point; settings: for activity for grass targets such as crabgrass and dog point / activity on grass weeds such as crabgrass, dog point / activity on grass weeds: 150 g a.i./ha; for activity for grass targets such as crabgrass and dog point: 30 days after administration, Table 9 summary; for activity on grass weeds such as crabgrass, dog point: postemergence spraying, 30 days; for activity on crabgrass, barnyard grass, dog point: postemergence treatment, 150, 75, 37.5 g a.i./ha; for activity on grass weeds: pre-emergence soil treatment
Excerpt: as §1, §2

[9] = test system: broadleaf weeds such as mustard, small quinoa, Abutilon, Amaranthus retroflexus and Eclipta prostrate; settings: 150 g a.i./ha; for herbicidal activity on broadleaf weeds targets: 30 days after administration, Table 9 summary; for activity on the growth of broadleaf weeds: postemergence spraying, vs clear water control
Excerpt: as §1, §2

[10] = test system: weeds; settings: pre-emergence soil treatment; dose lowered below 150 g a.i./ha
Excerpt: as §1, §2

[11] = test system: Radish; assay: Culture dish method (general screening); type: in vivo; settings: 100 mg/L, 7 days
Excerpt: as §3

[12] = test system: Rape; assay: Culture dish method (general screening); type: in vivo; settings: 100 mg/L, 7 days
Excerpt: as §3

[13] = test system: Chinese sorghum; assay: Culture dish method (general screening); type: in vivo; settings: 100 mg/L, 7 days
Excerpt: as §3

[14] = test system: Rice; settings: 150 g a.i./ha; post-emergence spray treatment
[15] = test system: amaranthus retroflexus; assay: Potted plants live body test; type: in vivo
Excerpt: as §1, §2

[16] = test system: Abutilon; assay: Potted plants live body test; type: in vivo
Excerpt: as §1, §2

[17] = test system: Dog point; assay: Potted plants live body test; type: in vivo
Excerpt: as §1, §2

[18] = test system: Eclipta prostrata; assay: Potted plants live body test; type: in vivo; settings: for efficiency, Eclipta prostrata: 30 days, Table 9
Excerpt: as §1, §2

[19] = test system: Crabgrass; assay: Potted plants live body test; type: in vivo
Excerpt: as §1, §2

[20] = test system: Barnyardgrass; assay: Culture dish method (general screening); type: in vivo, barnyard grass; settings: 100 mg/L, 7 days
Excerpt: as §3

[21] = test system: Wheat; assay: Culture dish method (general screening); type: in vivo; settings: 100 mg/L, 7 days
Excerpt: as §3

[22] = test system: Corn; settings: post-emergence spray treatment; for Crop inhibition rate, Corn: 150 g a.i./ha
[23] = test system: Barley; settings: post-emergence spray treatment; for Crop inhibition rate, Barley: 150 g a.i./ha
[24] = Pre-emergence soil treatment, 37.5 g a.i./ha
[25] = Pre-emergence soil treatment, 75 g a.i./ha
[26] = Pre-emergence soil treatment, 150 g a.i./ha, Table 10
[27] = postemergence spraying, 37.5 g a.i./ha
[28] = postemergence spraying, 75 g a.i./ha
[29] = postemergence spraying, 150 g a.i./ha, Table 10
[30] = Postemergence spraying, 150 g a.i./ha, 30 days, Table 9
[31] = Pre-emergence soil treatment, 150 g a.i./ha, 30 days, Table 9
[32] = Postemergence spraying, 150 g a.i./ha
[33] = Pre-emergence soil treatment, 150 g a.i./ha

CON=C(C(=O)OC)c1ccccc1COc1ccc(-c2ncc(Cl)cc2Cl)cc1 [Compound 133]
efficiency, Mustard ([1]; Postemergence spraying): 100%
efficiency, Mustard ([1]; Pre-emergence soil treatment): 100%
Crop inhibition rate, Cotton [2]: 50%
inhibition rate, Cucumber Root [3]: 100%
inhibition rate, Cucumber Stem [3]: 100%
efficiency, Barnyardgrass [4, 24]: 0%
efficiency, Barnyardgrass [4, 25]: 0%
efficiency, Barnyardgrass [4, 26]: 0%
efficiency, Barnyardgrass [4, 27]: 0%
efficiency, Barnyardgrass [4, 28]: 0%
efficiency, Barnyardgrass [4, 29]: 0%
Crop inhibition rate, Soybean [5]: 40%
Crop inhibition rate, Rape [6]: 100%
efficiency, Small quinoa ([7]; Postemergence spraying): 100%
efficiency, Small quinoa ([7]; Pre-emergence soil treatment): 100%
activity for grass targets such as crabgrass and dog point [8]: poor activity
activity on grass weeds such as crabgrass, dog point [8]: almost have no activity
activity on crabgrass, barnyard grass, dog point [8]: not good activity or no activity
activity on grass weeds [8]: not good activity
inhibition rate on the growth of broadleaf weeds ([9]; 30 days): 100%
herbicidal activity on broadleaf weeds targets [9]: herbicidal activity
activity on the growth of broadleaf weeds ([9]; 30 days): inhibitory activity
activity on 6 kinds of weed targets [10]: significantly decreased activity or no activity
inhibition rate, Radish Root [11]: 100%
inhibition rate, Radish Stem [11]: 100%
inhibition rate, Rape Root [12]: 100%
inhibition rate, Rape Stem [12]: 100%
inhibition rate, Chinese sorghum Root [13]: 100%
inhibition rate, Chinese sorghum Stem [13]: 100%
Crop inhibition rate, Rice [14]: 30%
efficiency, amaranthus retroflexus [15, 30]: 100%
efficiency, amaranthus retroflexus [15, 24]: 20%
efficiency, amaranthus retroflexus [15, 25]: 30%
efficiency, amaranthus retroflexus [15, 31]: 100%
efficiency, amaranthus retroflexus [15, 26]: 100%
efficiency, amaranthus retroflexus [15, 27]: 100%
efficiency, amaranthus retroflexus [15, 28]: 100%
efficiency, amaranthus retroflexus [15, 29]: 100%
efficiency, Abutilon [16, 30]: 100%
efficiency, Abutilon [16, 24]: 0%
efficiency, Abutilon [16, 25]: 0%
efficiency, Abutilon [16, 31]: 100%
efficiency, Abutilon [16, 26]: 100%
efficiency, Abutilon [16, 27]: 100%
efficiency, Abutilon [16, 28]: 100%
efficiency, Abutilon [16, 29]: 100%
efficiency on Abutilon ([16]; postemergence treatment, over doses 150, 75, 37.5 g a.i./ha): 100%
efficiency, Dog point [17, 30]: 0%
efficiency, Dog point [17, 24]: 0%
efficiency, Dog point [17, 25]: 0%
efficiency, Dog point [17, 31]: 50%
efficiency, Dog point [17, 26]: 50%
efficiency, Dog point [17, 27]: 0%
efficiency, Dog point [17, 28]: 0%
efficiency, Dog point [17, 29]: 0%
efficiency, Eclipta prostrata [18, 32]: 100%
efficiency, Eclipta prostrate [18, 24]: 0%
efficiency, Eclipta prostrate [18, 25]: 0%
efficiency, Eclipta prostrata [18, 33]: 100%
efficiency, Eclipta prostrate [18, 26]: 100%
efficiency, Eclipta prostrate [18, 27]: 97.5%
efficiency, Eclipta prostrate [18, 28]: 100%
efficiency, Eclipta prostrate [18, 29]: 100%
efficiency, Crabgrass [19, 30]: 0%
efficiency, Crabgrass [19, 24]: 0%
efficiency, Crabgrass [19, 25]: 0%
efficiency, Crabgrass [19, 31]: 50%
efficiency, Crabgrass [19, 26]: 50%
efficiency, Crabgrass [19, 27]: 0%
efficiency, Crabgrass [19, 28]: 0%
efficiency, Crabgrass [19, 29]: 0%
inhibition rate, Barnyardgrass Root [20]: 100%
inhibition rate, Barnyardgrass Stem [20]: 100%
inhibition rate, Wheat Root [21]: 50%
inhibition rate, Wheat Stem [21]: 0%
Crop inhibition rate, Corn [22]: 0%
crop safety for corns [22]: safer
Crop inhibition rate, Barley [23]: 0%
crop safety for barleys [23]: safer

CON=C(C(=O)OC)c1ccccc1COc1cccc(-c2ncc(C(F)(F)F)cc2Cl)c1 [Compound 101]
efficiency, Mustard ([1]; Postemergence spraying): 100%
efficiency, Mustard ([1]; Pre-emergence soil treatment): 100%
Crop inhibition rate, Cotton [2]: 50%
inhibition rate, Cucumber Root [3]: 95%
inhibition rate, Cucumber Stem [3]: 100%
efficiency, Barnyardgrass [4, 24]: 0%
efficiency, Barnyardgrass [4, 25]: 0%
efficiency, Barnyardgrass [4, 26]: 0%
efficiency, Barnyardgrass [4, 27]: 0%
efficiency, Barnyardgrass [4, 28]: 0%
efficiency, Barnyardgrass [4, 29]: 0%
Crop inhibition rate, Soybean [5]: 40%
Crop inhibition rate, Rape [6]: 50%
efficiency, Small quinoa ([7]; Postemergence spraying): 100%
efficiency, Small quinoa ([7]; Pre-emergence soil treatment): 100%
activity for grass targets such as crabgrass and dog point [8]: poor activity
activity on grass weeds such as crabgrass, dog point [8]: almost have no activity
activity on crabgrass, barnyard grass, dog point [8]: not good activity or no activity
activity on grass weeds [8]: not good activity
herbicidal activity on broadleaf weeds targets [9]: herbicidal activity
activity on the growth of broadleaf weeds ([9]; 30 days): inhibitory activity
activity on 6 kinds of weed targets [10]: significantly decreased activity or no activity
inhibition rate, Radish Root [11]: 100%
inhibition rate, Radish Stem [11]: 100%
inhibition rate, Rape Root [12]: 100%
inhibition rate, Rape Stem [12]: 100%
inhibition rate, Chinese sorghum Root [13]: 100%
inhibition rate, Chinese sorghum Stem [13]: 100%
Crop inhibition rate, Rice [14]: 30%
efficiency, amaranthus retroflexus [15, 30]: 100%
efficiency, amaranthus retroflexus [15, 24]: 0%
efficiency, amaranthus retroflexus [15, 25]: 15%
efficiency, amaranthus retroflexus [15, 31]: 100%
efficiency, amaranthus retroflexus [15, 26]: 100%
efficiency, amaranthus retroflexus [15, 27]: 100%
efficiency, amaranthus retroflexus [15, 28]: 100%
efficiency, amaranthus retroflexus [15, 29]: 100%
efficiency, Abutilon [16, 30]: 100%
efficiency, Abutilon [16, 24]: 0%
efficiency, Abutilon [16, 25]: 0%
efficiency, Abutilon [16, 31]: 100%
efficiency, Abutilon [16, 26]: 100%
efficiency, Abutilon [16, 27]: 30%
efficiency, Abutilon [16, 28]: 60%
efficiency, Abutilon [16, 29]: 100%
efficiency, Dog point [17, 30]: 0%
efficiency, Dog point [17, 24]: 0%
efficiency, Dog point [17, 25]: 0%
efficiency, Dog point [17, 31]: 50%
efficiency, Dog point [17, 26]: 50%
efficiency, Dog point [17, 27]: 0%
efficiency, Dog point [17, 28]: 0%
efficiency, Dog point [17, 29]: 0%
efficiency, Eclipta prostrata [18, 32]: 100%
efficiency, Eclipta prostrate [18, 24]: 0%
efficiency, Eclipta prostrate [18, 25]: 0%
efficiency, Eclipta prostrata [18, 33]: 85%
efficiency, Eclipta prostrate [18, 26]: 85%
efficiency, Eclipta prostrate [18, 27]: 97.5%
efficiency, Eclipta prostrate [18, 28]: 100%
efficiency, Eclipta prostrate [18, 29]: 100%
efficiency, Crabgrass [19, 30]: 0%
efficiency, Crabgrass [19, 24]: 0%
efficiency, Crabgrass [19, 25]: 0%
efficiency, Crabgrass [19, 31]: 80%
efficiency, Crabgrass [19, 26]: 80%
efficiency, Crabgrass [19, 27]: 0%
efficiency, Crabgrass [19, 28]: 0%
efficiency, Crabgrass [19, 29]: 0%
inhibition rate, Barnyardgrass Root [20]: 100%
inhibition rate, Barnyardgrass Stem [20]: 95%
inhibition rate, Wheat Root [21]: 50%
inhibition rate, Wheat Stem [21]: 20%
Crop inhibition rate, Corn [22]: 0%
crop safety for corns [22]: safer
Crop inhibition rate, Barley [23]: 0%
crop safety for barleys [23]: safer
